# From patent US20240108740A1, “THERAPEUTIC COMPOSITIONS INCLUDING SPN10 AND USES THEREOF” (Stealth BioTherapeutics Inc., priority 2022, published 2024)
# Residues, ends and D or L forms follow the SMILES beside them.
# How the values were obtained:
# [1] = test system: Human low density lipoprotein (LDL); assay: Example 18: LDL oxidation (conjugated dienes at 234 nm); format: biochemical; conditions: 10 mM, 5 hours at 37° C.
# Method: Human low density lipoprotein (LDL) will be prepared fresh from stored plasma. LDL oxidation will be induced catalytically by the addition of 10 mM […], and the formation of conjugated dienes will be monitored at 234 nm for 5 hours at 37° C. (B. Moosmann and C. Behl, Mol. Pharmacol. 61:260-268 (2002).
# [2] = test system: isolated mouse liver mitochondria; assay: Example 10: uptake into isolated mitochondria; format: in vitro ADME
# Method: To isolate mitochondria from mouse liver, mice will be sacrificed by decapitation. The liver will be removed and rapidly placed into chilled liver homogenization medium. The liver will be finely minced using scissors and then homogenized by hand using a glass homogenizer.
# The homogenate will be centrifuged for 10 minutes at 1000×g at 4° C. The supernatant will be aspirated and transferred to polycarbonate tubes and centrifuged again for 10 minutes at 3000×g, 4° C. The resulting supernatant will be removed, and the fatty lipids on the side-wall of the tube will be removed.
# The pellet will be resuspended in liver homogenate medium and the homogenization repeated twice. The final purified mitochondrial pellet will be resuspended in medium. Protein concentration in the mitochondrial preparation will be determined by the Bradford procedure.
# Approximately 1.5 mg mitochondria in 400 μL buffer will be incubated with [^3H] peptide conjugates; [^3H] aromatic-cationic peptides (an equivalent molar dose of aromatic-cationic peptide based on the concentration of the aromatic-cationic peptide administered in the peptide conjugate treatment group); [^3H] […] The mitochondria will then be centrifuged and the amount of radioactivity will be determined in the mitochondrial fraction and buffer fraction. […]
# [3] = test system: Isolated guinea pig hearts; assay: Example 15: organ preservation in cardioplegic solution; conditions: added to cardioplegic solution; 90 minutes ischemia, 60 minutes reperfusion
# Method: Isolated guinea pig hearts will be perfused in a retrograde fashion with an oxygenated Krebs-Henseleit solution at 34° C. After 30 minutes of stabilization, the hearts will be perfused with a cardioplegic solution (CPS; St. Thomas) alone or in the presence of peptide conjugates (100 nM); aromatic-cationic peptides (an equivalent molar dose of aromatic-cationic peptide based on the concentration of the aromatic-cationic peptide administered in the peptide conjugate treatment group); SPN10(s) (an equivalent molar dose of SPN10 based on the concentration of SPN10 administered in the peptide conjugate treatment group); or SPN10(s) in combination with aromatic-cationic peptides (e.g., an equivalent molar dose of SPN10 based on the concentration of SPN10 administered in the peptide conjugate treatment group and an equivalent molar dose of aromatic-cationic peptide based on the concentration of aromatic-cationic peptide administered in the peptide conjugate treatment group) for 3 minutes. Global ischemia will then be induced by complete interruption of coronary flow and maintained for 90 minutes. Reperfusion will be performed for 60 minutes with oxygenated Krebs-Henseleit solution. Contractile force, heart rate, and coronary flow will be monitored continuously throughout the procedure.
# Caco-2 cells = assay: Example 12: 3NP-induced mitochondrial depolarization (TMRM, CLSM); format: cell-based, human; conditions: 3NP 10 mM, 4 hours
# Method: Caco-2 cells will be treated with 3NP (10 mM) alone or in the presence of peptide conjugates (0.1 μM); aromatic-cationic peptides (an equivalent molar dose of aromatic-cationic peptide based on the concentration of the aromatic-cationic peptide administered in the peptide conjugate treatment group); SPN10(s) (an equivalent molar dose of SPN10 based on the concentration of SPN10 administered in the peptide conjugate treatment group); or SPN10(s) in combination with aromatic-cationic peptides (e.g., an equivalent molar dose of SPN10 based on the concentration of SPN10 administered in the peptide conjugate treatment group and an equivalent molar dose of aromatic-cationic peptide based on the concentration of aromatic-cationic peptide administered in the peptide conjugate treatment group) for 4 hours, and then incubated with TMRM and examined by CLSM. It is expected that 3NP-treated cells will display reduced fluorescence compared to control cells, which indicates mitochondrial depolarization.
# SH-SY5Y cells = assay: Example 27: apoptosis caused by oxidative stress (Hoechst 33342); format: cell-based; conditions: 0.025 mM t-BHP, 24 hours
# Method: SH-SY5Y cells will be grown in 96-well plates and treated with t-BHP (0.025 mM) alone or in the presence of peptide conjugates, aromatic-cationic peptides, or SPN10(s) with or without aromatic-cationic peptides at 37° C. for 24 hours. All treatments will be carried out in quadruplicate. Cells will then be stained with 2 mg/mL Hoechst 33342 for 20 minutes, fixed with 4% paraformaldehyde, and imaged using a Zeiss fluorescent microscope (Axiovert 200M) equipped with the Zeiss Acroplan 20× objective. Nuclear morphology will be evaluated using an excitation wavelength of […] and a longpass filter of 400 nm for emission. All images will be processed and analyzed using MetaMorph software (Universal Imaging Corp., West Chester, PA, U.S.A.). Uniformly stained nuclei will be scored as healthy, viable neurons. Cells with condensed or fragmented nuclei will be scored as apoptotic.
structure (smiles),measurement,setting,value
"N=C(N)NCCC[C@H](NC(=O)[C@@H](N)Cc1c[nH]c2ccccc12)C(=O)N[C@@H](Cc1c[nH]c2ccccc12)C(=O)N[C@@H](CCCCN)C(N)=O [SPN10, H-L-Trp-L-Arg-L-Trp-L-Lys-NH2] (H-WRWK-NH2)",rate of LDL oxidation,[1],dose-dependently inhibit the rate of LDL oxidation
same,concentration in mitochondria compared with buffer,[2]; 5-30 minutes at 37° C.,higher than in the buffer
same,amount associated with the mitochondrial pellet after FCCP,[2]; FCCP,decrease the amount
same,contractile function after prolonged ischemia,[3],significantly enhance contractile function
same,mitochondrial depolarization caused by 3NP,Caco-2 cells,protect against mitochondrial depolarization
same,apoptosis induced by t-BHP,SH-SY5Y cells,prevent SH-SY5Y cell apoptosis
